This note sets out measurements from PMC5706701, “Development of a homogenous high-throughput assay for inositol hexakisphosphate kinase 1 activity” (PLoS ONE, 2017).

Where a name gives a salt, the structure may show the parent alone.

The target in this assay is T1, Human IP6K1 (Homo sapiens, UniProt Q92551).
T1 construct: GST (N, cleaved yes); made in house; host or cells: C43 E. coli, pGEX-6P-2
The assay can be described thus: IP6K1 high-throughput screen of the Sigma LOPAC (ADP-Glo Max, single point).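 Note: final compound concentration 10µM in 5% DMSO.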 Type of assay: biochemical. In general terms: ADP-Glo first removes unused ATP, then detects ADP through luciferase.

Setting [1] is: LOPAC single-point screen, ADP-Glo Max luminescence raw signal per well.
Setting [2] is: LOPAC single-point screen, Z-score relative to plate average and StDev.
The mark [3] stands for this setting: LOPAC single-point screen, ADP-Glo Max raw signal per well.
The mark [4] stands for this setting: LOPAC single-point screen, Z-score from raw signal with plate average and StDev.
Setting [5] is: Sigma LOPAC single-point screen, ADP-Glo Max raw signal per well.
Setting [6] is: Sigma LOPAC single-point screen, Z-score from plate average and StDev.
Where [7] appears, read: LOPAC single-point screen, Z-score against plate average and StDev.

T1 sequence (Q92551 whole entry): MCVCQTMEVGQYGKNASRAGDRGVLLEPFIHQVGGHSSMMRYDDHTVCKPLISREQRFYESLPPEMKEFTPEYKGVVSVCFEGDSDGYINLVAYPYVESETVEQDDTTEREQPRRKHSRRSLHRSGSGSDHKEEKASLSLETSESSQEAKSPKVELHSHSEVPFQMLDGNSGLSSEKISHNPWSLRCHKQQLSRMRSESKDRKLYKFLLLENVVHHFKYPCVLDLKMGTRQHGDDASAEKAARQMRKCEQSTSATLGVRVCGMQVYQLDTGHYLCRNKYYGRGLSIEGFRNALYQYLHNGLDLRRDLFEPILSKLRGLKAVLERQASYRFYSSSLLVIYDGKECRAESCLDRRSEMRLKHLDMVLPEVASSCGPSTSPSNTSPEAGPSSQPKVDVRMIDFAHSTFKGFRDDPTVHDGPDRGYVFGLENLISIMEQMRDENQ

Regarding `COc1cc(CC(C)N)c(OC)cc1I.Cl` (racemic) [(±)-DOI hydrochloride], the “Raw Signal” value under setting [1] turned out to be 52125. The Z-score under setting [2] is given as -0.6178.

For `COc1ccc2c(c1)c(CC(=O)O)c(C)n2Cc1ccc(F)cc1`, under setting [3], the “Raw Signal” value is listed as 54531. Under setting [4], the Z-score is -0.1292.

For the molecule `COc1cc2ncnc(Nc3cccc(Cl)c3)c2cc1OC` [Tyrphostin AG 1478], the “Raw Signal” value under setting [5] is on record as 57891. The same molecule yielded a Z-score under setting [6] of 0.3628.

As for `CCOC(=O)c1cnc2c(cnn2CC)c1NN=C(C)C` [Etazolate hydrochloride], the “Raw Signal” value under setting [1] was 51155. Also, under setting [2], the Z-score is -0.8148.

Turning to `OC[C@H]1O[C@@H](n2cnc3c(NC4CCCCC4)ncnc32)[C@H](O)[C@@H]1O` [N6-Cyclohexyladenosine], the “Raw Signal” value under setting [5] is 60438. Also, the Z-score under setting [6] came out at 1.07.

Take `CCN(CC)C(=O)N[C@H]1C[C@@H]2c3cccc4[nH]cc(c34)C[C@H]2N(C)C1` [R(+)-Terguride]: under setting [5], the “Raw Signal” value amounted to 59619. Besides, the Z-score under setting [6] is listed as 0.6985.

For the molecule `NC(=O)NO` [Hydroxyurea], the “Raw Signal” value under setting [1] is reported as 51854. The same molecule had a Z-score under setting [2] of -0.6728.

On to `CC(C)(C)c1cc(/C=C(\C#N)C(N)=S)cc(C(C)(C)C)c1O` [Tyrphostin AG 879], for which the “Raw Signal” value under setting [3] is reported as 56085. The molecule also returned a Z-score under setting [7] of 0.01189.

Consider `O=C(O)C1CCCNC1` (racemic) [(±)-Nipecotic acid], for which the “Raw Signal” value under setting [5] is 63719. Moreover, the Z-score under setting [6] was determined as 1.023.

`CSC(N)=NCCC[C@H](N)C(=O)O` [S-Methyl-L-thiocitrulline acetate]: the “Raw Signal” value under setting [3] is reported as 53034. The same molecule displayed a Z-score under setting [4] of -0.2284.

As to `NC(=S)c1ccc[n+]([C@@H]2O[C@@H](COP(=O)([O-])OP(=O)(O)OC[C@H]3O[C@@H](n4cnc5c(N)ncnc54)C(OP(=O)([O-])O)[C@H]3O)C(O)C2O)c1.[Na+]` (some centres unmarked) [Thio-NADP sodium], under setting [3], the “Raw Signal” value was 56703. This molecule also came in with a Z-score under setting [7] of 0.132.

`Cl.O=c1[nH]oc2c1CCNC2` [THIP hydrochloride]: the “Raw Signal” value under setting [5] came out at 60339. Under setting [6], this molecule had a Z-score of 0.8384.

For `CN(C)CCCN1c2ccccc2CCc2ccc(Cl)cc21` [Clomipramine hydrochloride], the “Raw Signal” value under setting [5] is reported as 60543. The molecule also displayed a Z-score under setting [6] of 0.4632.

On to `CCCn1c(=O)c2c(ncn2C)n(CCC)c1=O` [1,3-Dipropyl-7-methylxanthine], for which the “Raw Signal” value under setting [5] was 58298. Also, the Z-score under setting [6] is given as 0.6359.

For `N#C/C(=C\c1ccc(O)c(O)c1)C(=O)Nc1ccccc1` [Tyrphostin AG 494], under setting [3], the “Raw Signal” value amounted to 54872. Further, the Z-score under setting [4] is listed as -0.2238.

Turning to `CC(C)COCC(CN(Cc1ccccc1)c1ccccc1)N1CCCC1` (centres unmarked) [Bepridil hydrochloride], under setting [5], the “Raw Signal” value stood at 60020. The molecule also came in with a Z-score under setting [6] of 0.3711.

On to `C[N+](C)(C)CC#CCOC(=O)Nc1cccc(Cl)c1.[Cl-]` [McN-A-343], for which the “Raw Signal” value under setting [3] amounted to 55957. The Z-score under setting [4] is -0.3445.

As to `CCCN1C[C@H](CSC)C[C@@H]2c3cccc4[nH]cc(c34)C[C@H]21` [Pergolide methanesulfonate], under setting [3], the “Raw Signal” value stood at 53757. Also, the Z-score under setting [4] is -0.4404.

For the molecule `Nc1nc(Cl)nc2c1ncn2C1OC(CO)C(O)C1O` (centres unmarked) [2-Chloroadenosine], the “Raw Signal” value under setting [3] was determined as 58125. This molecule also had a Z-score under setting [7] of 0.03732.

For `O=c1ccc2ccc(O)c(O)c2o1` [Daphnetin], under setting [3], the “Raw Signal” value was found to be 55045. The Z-score under setting [7] was -0.02478.

`N#C/C(=C\c1ccc(O)c(O)c1)C(=O)c1ccc(O)c(O)c1` [Tyrphostin AG 538]: the “Raw Signal” value under setting [1] was 38614. The molecule further returned a Z-score under setting [2] of -3.382.

Regarding `Cl.OCc1c[nH]cn1` [4-Imidazolemethanol hydrochloride], under setting [3], the “Raw Signal” value is given as 56297. For the same molecule, under setting [7], the Z-score was found to be 0.2295.
